Reference: patent publication US20240041042A1, “1-(PYRIDYL)-5-AZINYLPYRAZOLE DERIVATIVES, AND THEIR USE FOR CONTROL OF UNDESIRED PLANT GROWTH” (Bayer Aktiengesellschaft, priority 2020, published 2024)
Where two headings read alike, the source gives them in different places.

Tests used:
Format in all cases: in vivo
[1] = system: Polygonum convolvulus (POLCO); experiment: Post-emergence herbicidal action against POLCO
Procedure: (§1) Seeds of monocotyledonous and dicotyledonous weeds and crop plants are placed in sandy loam in plastic or organic planting pots, covered with soil and cultivated in a greenhouse under controlled growth conditions. 2 to 3 weeks after sowing, the test plants are treated at the one-leaf stage. The compounds of the invention, formulated in the form of wettable powders (WP) or as emulsion concentrates (EC), are then sprayed onto the green parts of the plants as aqueous suspension or emulsion with addition of 0.5% additive at a water application rate of 600 l/ha (converted). After the test plants have been kept in the greenhouse under optimum growth conditions for about 3 weeks, the activity of the preparations is rated visually in comparison to untreated controls. For example, 100% activity=the plants have died, 0% activity=like control plants.
(§2) Tables B1 to B13 below show the effects of selected compounds of the general formula (I) according to Table 1 on various harmful plants and at an application rate corresponding to 320 g/ha or lower, which were obtained by the experimental procedure mentioned above. The appendices “a”, “b” and “c” give differentiation by dosage used with otherwise the same harmful plants tested.

[2] = system: Setaria viridis (SETVI); experiment: Post-emergence herbicidal action against SETVI
Procedure: as §1, §2

[3] = system: Avena fatua (AVEFA); experiment: Post-emergence herbicidal action against AVEFA; conditions: visual rating about 3 weeks after treatment
Procedure: as §1, §2

[4] = system: Polygonum convolvulus (POLCO); experiment: Pre-emergence herbicidal action against POLCO
From the text: (§3) Seeds of monocotyledonous and dicotyledonous weed plants and crop plants are placed in plastic or organic planting pots and covered with soil. The compounds of the invention, formulated in the form of wettable powders (WP) or as emulsion concentrates (EC), are then applied to the surface of the covering soil as aqueous suspension or emulsion with addition of 0.5% additive at a water application rate equivalent to 600 l/ha. After the treatment, the pots are placed in a greenhouse and kept under good growth conditions for the trial plants. After about 3 weeks, the effect of the preparations is scored visually in comparison with untreated controls as percentages. For example, 100% activity=the plants have died, 0% activity=like control plants.
(§4) Tables A1 to A13 below show the effects of selected compounds of the general formula (I) on various harmful plants and at an application rate corresponding to 320 g/ha or lower, which were obtained by the experimental procedure mentioned above. The appendices “a”, “b” and “c” give differentiation by dosage used with otherwise the same harmful plants tested.

[5] = system: Amaranthus retroflexus (AMARE); experiment: Post-emergence herbicidal action against AMARE
Procedure: as §1, §2

[6] = system: Avena fatua (AVEFA); experiment: Pre-emergence herbicidal action against AVEFA; conditions: 320 g/ha, visual scoring after about 3 weeks vs untreated controls
From the text: as §3, §4

[7] = system: Alopecurus myosuroides (ALOMY); experiment: Pre-emergence herbicidal action against ALOMY; conditions: scored visually after about 3 weeks, 100% = plants have died
From the text: as §3, §4

[8] = system: Alopecurus myosuroides (ALOMY); experiment: Post-emergence herbicidal action against ALOMY; conditions: 320 g/ha, visual rating about 3 weeks after treatment vs untreated controls (100% = plants have died, 0% = like control plants)
Procedure: as §1, §2

[9] = system: Echinochloa crus-galli (ECHCG); experiment: Pre-emergence herbicidal action against ECHCG
From the text: as §3, §4

[10] = system: Viola tricolor (VIOTR); experiment: Pre-emergence herbicidal action against VIOTR
From the text: as §3, §4

[11] = system: Lolium rigidum (LOLRI); experiment: Pre-emergence herbicidal action against LOLRI
From the text: as §3, §4

[12] = system: Matricaria inodora (MATIN); experiment: Pre-emergence herbicidal action against MATIN; conditions: dosage 320 g/ha
From the text: as §3, §4

[13] = system: Viola tricolor (VIOTR); experiment: Post-emergence herbicidal action against VIOTR
Procedure: as §1, §2

[14] = system: Abutilon theophrasti (ABUTH); experiment: Post-emergence herbicidal action against ABUTH; conditions: 320 g/ha, visual rating about 3 weeks after treatment vs untreated controls (100% = plants have died, 0% = like control plants)
Procedure: as §1, §2

[15] = system: Oryza sativa (ORYSA); conditions: crop plant compatibility, effect in comparison to untreated controls
Procedure: as §1
(§5) The observed effects on selected crop plants are reported here in comparison to the untreated controls (values in %). The appendices “a”, “b” and “c” give differentiation by dosage used with otherwise the same crop plants tested.

[16] = system: Lolium rigidum (LOLRI); experiment: Post-emergence herbicidal action against LOLRI
Procedure: as §1, §2

[17] = system: Setaria viridis (SETVI); experiment: Pre-emergence herbicidal action against SETVI
From the text: as §3, §4

[18] = system: Pharbitis purpurea (PHBPU); experiment: Pre-emergence herbicidal action against PHBPU; conditions: dosage 320 g/ha
From the text: as §3, §4

[19] = system: Verconica persica (VERPE); experiment: Post-emergence herbicidal action against VERPE; conditions: 320 g/ha, VERPE
Procedure: as §1, §2

[20] = system: Echinochloa crus-galli (ECHCG); experiment: Post-emergence herbicidal action against ECHCG
Procedure: as §1, §2

[21] = system: Verconica persica (VERPE); experiment: Pre-emergence herbicidal action against VERPE
From the text: as §3, §4

[22] = system: Amaranthus retroflexus (AMARE); experiment: Pre-emergence herbicidal action against AMARE; conditions: visual scoring after about 3 weeks vs untreated controls
From the text: as §3, §4

[23] = system: Pharbitis purpurea (PHBPU); experiment: Post-emergence herbicidal action against PHBPU
Procedure: as §1, §2

[24] = system: Zea mays (ZEAMX); conditions: crop plant compatibility, 80 g/ha, effect vs untreated controls
Procedure: as §1, §5

[25] = 80 g/ha, visual rating about 3 weeks after treatment vs untreated controls (100% = plants have died, 0% = like control plants)
[26] = 320 g/ha, visual rating about 3 weeks after treatment

With `CC(NC(=O)[C@@H](C)Oc1nn(-c2ccccn2)c(-c2ccc(F)nc2)c1Cl)C(=O)O` (some centres unmarked) [Example I-350] the “Post-emergence action against POLCO in %” value ([1]; dosage 80 g/ha) was 80%, the “Post-emergence action against POLCO in %” value ([1]; dosage 320 g/ha) was 90% and the “Post-emergence action against SETVI in %” value ([2]; dosage 80 g/ha) was 80%. The “Post-emergence action against SETVI in %” value ([2]; dosage 320 g/ha) was 90%, the “Post-emergence action against AVEFA in %” value ([3]; 80 g/ha) was 90% and the “Post-emergence action against AVEFA in %” value ([3]; 320 g/ha) was 90%. The “Pre-emergence action against POLCO in %” value ([4]; dosage 80 g/ha) was 90%, the “Pre-emergence action against POLCO in %” value ([4]; dosage 320 g/ha) was 90% and the “Post-emergence action against AMARE in %” value [5, 25] was 90%. The “Post-emergence action against AMARE in %” value [5, 26] was 90%, the “Pre-emergence action against AVEFA in %” value [6] was 100% and the “Pre-emergence action against ALOMY” value ([7]; 80 g/ha) was 100%. For the same compound, the “Pre-emergence action against ALOMY” value ([7]; 320 g/ha) was 100%, the “Post-emergence action against ALOMY in %” value [8] was 90% and the “Pre-emergence action against ECHCG in %” value ([9]; dosage 80 g/ha) was 100%. The “Pre-emergence action against ECHCG in %” value ([9]; dosage 320 g/ha) was 100%, the “Pre-emergence action against VIOTR in %” value ([10]; 320 g/ha, Viola tricolor) was 100% and the “Pre-emergence action against VIOTR in %” value ([10]; dosage 80 g/ha) was 100%. The “Pre-emergence action against LOLRI in %” value ([11]; dosage 80 g/ha) was 100%, the “Pre-emergence action against LOLRI in %” value ([11]; dosage 320 g/ha) was 100% and the “Pre-emergence action against MATIN in %” value [12] was 90%. For the same compound, the “Post-emergence action against VIOTR in %” value ([13]; 80 g/ha) was 90%, the “Post-emergence action against VIOTR in %” value ([13]; 320 g/ha) was 90% and the “Post-emergence action against ABUTH in %” value [14] was 90%. For the same compound, the “Post-emergence action against ORYSA in %” value ([15]; 80 g/ha) was 0%, the “Post-emergence action against ORYSA in %” value ([15]; 320 g/ha) was 10% and the “Post-emergence action against LOLRI in %” value ([16]; dosage 80 g/ha) was 80%. For the same compound, the “Post-emergence action against LOLRI in %” value ([16]; dosage 320 g/ha) was 90%, the “Pre-emergence action against SETVI in %” value ([17]; dosage 80 g/ha) was 100% and the “Pre-emergence action against SETVI in %” value ([17]; dosage 320 g/ha) was 100%. For the same compound, the “Pre-emergence action against PHBPU in %” value [18] was 80%, the “Post-emergence action against VERPE in %” value [19] was 90% and the “Post-emergence action against ECHCG in %” value ([20]; dosage 80 g/ha) was 80%. For the same compound, the “Post-emergence action against ECHCG in %” value ([20]; dosage 320 g/ha) was 90%, the “Pre-emergence action against VERPE in %” value ([21]; dosage 80 g/ha) was 90% and the “Pre-emergence action against VERPE in %” value ([21]; dosage 320 g/ha) was 100%. For the same compound, the “Pre-emergence action against AMARE in %” value ([22]; 80 g/ha) was 100% and the “Pre-emergence action against AMARE in %” value ([22]; 320 g/ha) was 100%.
In the case of `C[C@H](NC(=O)COc1nn(-c2ccccn2)c(-c2cncc(F)c2)c1Br)C(=O)O` [Example I-80], the “Post-emergence action against POLCO in %” value ([1]; dosage 80 g/ha) is reported as 80%, the “Post-emergence action against POLCO in %” value ([1]; dosage 320 g/ha) is reported as 80% and the “Post-emergence action against SETVI in %” value ([2]; dosage 320 g/ha) is reported as 80%. For the same compound, the “Post-emergence action against AVEFA in %” value ([3]; 80 g/ha) was 80%, the “Post-emergence action against AVEFA in %” value ([3]; 320 g/ha) was 80% and the “Pre-emergence action against POLCO in %” value ([4]; dosage 320 g/ha) was 90%. The “Post-emergence action against AMARE in %” value [5, 25] was 80%, the “Post-emergence action against AMARE in %” value [5, 26] was 80% and the “Pre-emergence action against AVEFA in %” value [6] was 90%. The “Post-emergence action against PHBPU in %” value ([23]; dosage 80 g/ha) was 80%, the “Post-emergence action against PHBPU in %” value ([23]; dosage 320 g/ha) was 80% and the “Pre-emergence action against ALOMY” value ([7]; 80 g/ha) was 100%. The “Pre-emergence action against ALOMY” value ([7]; 320 g/ha) was 100%, the “Post-emergence action against ALOMY in %” value [8] was 90% and the “Pre-emergence action against ECHCG in %” value ([9]; dosage 320 g/ha) was 100%. For the same compound, the “Pre-emergence action against VIOTR in %” value ([10]; 320 g/ha, Viola tricolor) was 90%, the “Pre-emergence action against LOLRI in %” value ([11]; dosage 320 g/ha) was 100% and the “Pre-emergence action against MATIN in %” value [12] was 90%. The “Post-emergence action against ORYSA in %” value ([15]; 80 g/ha) was 20%, the “Post-emergence action against ORYSA in %” value ([15]; 320 g/ha) was 20% and the “Post-emergence action against ZEAMX in %” value [24] was 20%. The “Pre-emergence action against SETVI in %” value ([17]; dosage 80 g/ha) was 90%, the “Pre-emergence action against SETVI in %” value ([17]; dosage 320 g/ha) was 100% and the “Pre-emergence action against PHBPU in %” value [18] was 90%. The “Post-emergence action against VERPE in %” value [19] was 80%, the “Post-emergence action against ECHCG in %” value ([20]; dosage 80 g/ha) was 80% and the “Post-emergence action against ECHCG in %” value ([20]; dosage 320 g/ha) was 80%. For the same compound, the “Pre-emergence action against VERPE in %” value ([21]; dosage 320 g/ha) was 90%, the “Pre-emergence action against AMARE in %” value ([22]; 80 g/ha) was 90% and the “Pre-emergence action against AMARE in %” value ([22]; 320 g/ha) was 90%.
